Data taken from US11998539B2, “Substituted aminoquinolones as DGKalpha inhibitors for immune activation” (Bayer Aktiengesellschaft, priority 2019, dated 2024).

What follows are molecules tested against DGKα (Homo sapiens (Human), UniProt P23743) (assay: Human DGKα kinase activity inhibition assay (ADP-Glo)). Conditions: recombinant full-length human DGKα, 55 μM ATP, 7 μM 1,2-dioleoyl-sn-glycerol, read-out: IC50 values of examples in in vitro human DGKa kinase activity inhibition assays.
Assay type: biochemical
Summary of the method: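 Recombinant full-length human DGKα (C-terminal FLAG, from insect cells) phosphorylated 1,2-dioleoyl-sn-glycerol presented in octyl-glucopyranoside micelles. ADP formed was quantified by ADP-Glo luminescence. Compounds were added from 100-fold DMSO stocks.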

DGKα, sequence (P23743 other isoform, or with tags, fused parts or gaps): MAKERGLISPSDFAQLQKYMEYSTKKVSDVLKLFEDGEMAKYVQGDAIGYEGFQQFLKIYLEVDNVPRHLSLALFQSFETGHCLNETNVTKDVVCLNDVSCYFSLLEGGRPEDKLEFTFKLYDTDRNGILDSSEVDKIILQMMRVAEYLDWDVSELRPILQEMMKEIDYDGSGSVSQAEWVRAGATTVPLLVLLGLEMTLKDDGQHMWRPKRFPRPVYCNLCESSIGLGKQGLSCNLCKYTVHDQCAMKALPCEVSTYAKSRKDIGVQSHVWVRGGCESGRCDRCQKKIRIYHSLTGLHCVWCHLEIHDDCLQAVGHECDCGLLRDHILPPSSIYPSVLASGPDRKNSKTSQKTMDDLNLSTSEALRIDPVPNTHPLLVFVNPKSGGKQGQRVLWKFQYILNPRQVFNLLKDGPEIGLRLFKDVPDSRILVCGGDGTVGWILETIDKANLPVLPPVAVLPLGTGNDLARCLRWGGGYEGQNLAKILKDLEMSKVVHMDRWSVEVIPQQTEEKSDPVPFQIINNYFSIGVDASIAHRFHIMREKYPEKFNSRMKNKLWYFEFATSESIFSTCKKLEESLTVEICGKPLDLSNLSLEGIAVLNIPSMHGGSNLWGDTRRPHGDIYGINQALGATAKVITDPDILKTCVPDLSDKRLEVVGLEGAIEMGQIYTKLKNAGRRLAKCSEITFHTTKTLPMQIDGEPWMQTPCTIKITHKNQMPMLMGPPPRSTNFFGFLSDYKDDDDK

Structure (SMILES) | IC50 [nM]
Cn1c(=O)c(C(N)=O)c(N2CCC(C)(c3nc4ccccc4o3)CC2)c2ccc(F)cc21 [Example 303, 4-[4-(1,3-benzoxazol-2-yl)-4-methylpiperidin-1-yl]-7-fluoro-1-methyl-2-oxo-1,2-dihydroquinoline-3-carboxamide] | 1.9
Cc1ccc2oc(C3CCN(c4c(C(N)=O)c(=O)n(C)c5cc(F)ccc45)CC3)nc2c1 [Example 304, 7-fluoro-1-methyl-4-[4-(5-methyl-1,3-benzoxazol-2-yl)piperidin-1-yl]-2-oxo-1,2-dihydroquinoline-3-carboxamide] | 2.1
Cn1c(=O)c(C(N)=O)c(N2CCC(c3nc4ccccc4o3)CC2)c2ccc(F)cc21 [Example 305, 4-[4-(1,3-benzoxazol-2-yl)piperidin-1-yl]-7-fluoro-1-methyl-2-oxo-1,2-dihydroquinoline-3-carboxamide] | 4.5
Cn1c(=O)c(C(N)=O)c(N2CCC(C)(c3nc4ccccc4o3)CC2)c2ccc(C(F)(F)F)cc21 [Example 306, 4-[4-(1,3-benzoxazol-2-yl)-4-methylpiperidin-1-yl]-1-methyl-2-oxo-7-(trifluoromethyl)-1,2-dihydroquinoline-3-carboxamide] | 4.1
Cc1ccc2oc(C3CCN(c4c(C(N)=O)c(=O)n(C)c5cc(C(F)(F)F)ccc45)CC3)nc2c1 [Example 307, 1-methyl-4-[4-(5-methyl-1,3-benzoxazol-2-yl)piperidin-1-yl]-2-oxo-7-(trifluoromethyl)-1,2-dihydroquinoline-3-carboxamide] | 5.7
Cn1c(=O)c(C(N)=O)c(N2CCC(c3nc4ccccc4o3)CC2)c2ccc(C(F)(F)F)cc21 [Example 308, 4-[4-(1,3-benzoxazol-2-yl)piperidin-1-yl]-1-methyl-2-oxo-7-(trifluoromethyl)-1,2-dihydroquinoline-3-carboxamide] | 6.4
Cn1c(=O)c(C(N)=O)c(N2CCC(c3nc4ccccc4o3)CC2)c2cccc(Cl)c21 [Example 309, 4-[4-(1,3-benzoxazol-2-yl)piperidin-1-yl]-8-chloro-1-methyl-2-oxo-1,2-dihydroquinoline-3-carboxamide] | 101
Cn1c(=O)c(C(N)=O)c(N2CCC(C)(c3nc4ccccc4o3)CC2)c2cccc(Cl)c21 [Example 310, 4-[4-(1,3-benzoxazol-2-yl)-4-methylpiperidin-1-yl]-8-chloro-1-methyl-2-oxo-1,2-dihydroquinoline-3-carboxamide] | 34
Cc1ccc2c(N3CCC(C)(c4nc5ccccc5o4)CC3)c(C(N)=O)c(=O)n(C)c2c1 [Example 311, 4-[4-(1,3-benzoxazol-2-yl)-4-methylpiperidin-1-yl]-1,7-dimethyl-2-oxo-1,2-dihydroquinoline-3-carboxamide] | 1.2
Cc1ccc2oc(C3(C)CCN(c4c(C(N)=O)c(=O)n(C)c5cc(C)ccc45)CC3)nc2c1 [Example 312, 1,7-dimethyl-4-[4-methyl-4-(5-methyl-1,3-benzoxazol-2-yl)piperidin-1-yl]-2-oxo-1,2-dihydroquinoline-3-carboxamide] | 0.7
Cc1ccc2oc(C3CCN(c4c(C(N)=O)c(=O)n(C)c5cc(C)ccc45)CC3)nc2c1 [Example 313, 1,7-dimethyl-4-[4-(5-methyl-1,3-benzoxazol-2-yl)piperidin-1-yl]-2-oxo-1,2-dihydroquinoline-3-carboxamide] | 1.5
Cc1ccc2c(N3CCC(c4nc5ccccc5o4)CC3)c(C(N)=O)c(=O)n(C)c2c1 [Example 314, 4-[4-(1,3-benzoxazol-2-yl)piperidin-1-yl]-1,7-dimethyl-2-oxo-1,2-dihydroquinoline-3-carboxamide] | 1.7
COCCc1cccc2oc(C3CCN(c4c(C(N)=O)c(=O)n(C)c5ccccc45)CC3)nc12 [Example 315, 4-{4-[4-(2-methoxyethyl)-1,3-benzoxazol-2-yl]piperidin-1-yl}-1-methyl-2-oxo-1,2-dihydroquinoline-3-carboxamide] | 46
COCCc1ccc2nc(C3CCN(c4c(C(N)=O)c(=O)n(C)c5ccccc45)CC3)oc2c1 [Example 317, 4-{4-[6-(2-methoxyethyl)-1,3-benzoxazol-2-yl]piperidin-1-yl}-1-methyl-2-oxo-1,2-dihydroquinoline-3-carboxamide] | 17
Cn1c(=O)c(C(N)=O)c(N2CCC(c3nc4ccccc4o3)CC2)c2ccc(N3CCCC3=O)cc21 [Example 318, 4-[4-(1,3-benzoxazol-2-yl)piperidin-1-yl]-1-methyl-2-oxo-7-(2-oxopyrrolidin-1-yl)-1,2-dihydroquinoline-3-carboxamide] | 48
Cc1ccc2oc(C3CCN(c4c(C(N)=O)c(=O)n(C)c5c(Cl)cccc45)CC3)nc2c1 [Example 319, 8-chloro-1-methyl-4-[4-(5-methyl-1,3-benzoxazol-2-yl)piperidin-1-yl]-2-oxo-1,2-dihydroquinoline-3-carboxamide] | 74
Cn1c(=O)c(C#N)c(N2CCC(c3cnc4ccccc4n3)CC2)c2ccccc21 [Example 321, 1-methyl-2-oxo-4-[4-(quinoxalin-2-yl)piperidin-1-yl]-1,2-dihydroquinoline-3-carbonitrile] | 75
Cn1c(=O)c(C#N)c(N2CCC(c3cc[nH]n3)CC2)c2ccccc21 [Example 322, 1-methyl-2-oxo-4-[4-(1H-pyrazol-3-yl)piperidin-1-yl]-1,2-dihydroquinoline-3-carbonitrile] | 239
Cn1cc(C2CCN(c3c(C#N)c(=O)n(C)c4ccccc34)CC2)cn1 [Example 323, 1-methyl-4-[4-(1-methyl-1H-pyrazol-4-yl)piperidin-1-yl]-2-oxo-1,2-dihydroquinoline-3-carbonitrile] | 326
COc1ccc(C2CCN(c3c(C#N)c(=O)n(C)c4ccccc34)CC2)cc1OC [Example 324, 4-[4-(3,4-dimethoxyphenyl)piperidin-1-yl]-1-methyl-2-oxo-1,2-dihydroquinoline-3-carbonitrile] | 14
Cn1c(=O)c(C#N)c(N2CCC(c3cccc(Cl)c3)CC2)c2ccccc21 [Example 325, 4-[4-(3-chlorophenyl)piperidin-1-yl]-1-methyl-2-oxo-1,2-dihydroquinoline-3-carbonitrile] | 26
Cc1ccc2oc([C@H]3CCN(c4c(C#N)c(=O)n(C)c5ccccc45)[C@@H](C)C3)nc2c1 [Example 326, 1-methyl-4-[(2S,4S)-2-methyl-4-(5-methyl-1,3-benzoxazol-2-yl)-1-piperidyl]-2-oxo-quinoline-3-carbonitrile] | 34
Cn1c(=O)c(C#N)c(N2CCC(c3cccc(C#N)c3)CC2)c2ccccc21 [Example 327, 4-[4-(3-cyanophenyl)piperidin-1-yl]-1-methyl-2-oxo-1,2-dihydroquinoline-3-carbonitrile] | 85
Cn1c(=O)c(C#N)c(N2CCC[C@H](c3ccccc3)CC2)c2cccc(F)c21 [Example 328, 8-fluoro-1-methyl-2-oxo-4-[(4S)-4-phenylazepan-1-yl]-1,2-dihydroquinoline-3-carbonitrile] | 144
Cn1c(=O)c(C#N)c(N2CCC(c3ccc(C(N)=O)cc3)CC2)c2ccccc21 [Example 330, 4-[1-(3-cyano-1-methyl-2-oxo-1,2-dihydroquinolin-4-yl)piperidin-4-yl]benzamide] | 217
COc1ccccc1C1(O)CCN(c2c(C#N)c(=O)n(C)c3ccccc23)CC1 [Example 331, 4-[4-hydroxy-4-(2-methoxyphenyl)piperidin-1-yl]-1-methyl-2-oxo-1,2-dihydroquinoline-3-carbonitrile] | 861
